Test results as given in patent US20240383901A1, “SUBSTITUTED PYRROLO[2,3-D]PYRIMIDINES, THEIR PREPARATION AND THEIR THERAPEUTIC APPLICATION” (SANOFI, priority 2021, published 2024).

Target: LRRK2 (Homo sapiens, UniProt Q5S007)
Test: LRRK2 WT assay (Assay B, radiometric 33P-ATP filter binding)
Assay type: biochemical
Conditions: Assay B (values marked *)
Description: LRRK2(human) is incubated with 50 mM HEPES pH 8.0, 0.2 mM EDTA, 0.01% Brij-35, 1% (w/v) BSA, 5 mM DTT, 250 Mm […], 10 mM Magnesium acetate and [[…]]-ATP (specific activity and concentration as required).
The reaction is initiated by the addition of the Mg/ATP mix.

Sequence of LRRK2 (Q5S007 whole entry): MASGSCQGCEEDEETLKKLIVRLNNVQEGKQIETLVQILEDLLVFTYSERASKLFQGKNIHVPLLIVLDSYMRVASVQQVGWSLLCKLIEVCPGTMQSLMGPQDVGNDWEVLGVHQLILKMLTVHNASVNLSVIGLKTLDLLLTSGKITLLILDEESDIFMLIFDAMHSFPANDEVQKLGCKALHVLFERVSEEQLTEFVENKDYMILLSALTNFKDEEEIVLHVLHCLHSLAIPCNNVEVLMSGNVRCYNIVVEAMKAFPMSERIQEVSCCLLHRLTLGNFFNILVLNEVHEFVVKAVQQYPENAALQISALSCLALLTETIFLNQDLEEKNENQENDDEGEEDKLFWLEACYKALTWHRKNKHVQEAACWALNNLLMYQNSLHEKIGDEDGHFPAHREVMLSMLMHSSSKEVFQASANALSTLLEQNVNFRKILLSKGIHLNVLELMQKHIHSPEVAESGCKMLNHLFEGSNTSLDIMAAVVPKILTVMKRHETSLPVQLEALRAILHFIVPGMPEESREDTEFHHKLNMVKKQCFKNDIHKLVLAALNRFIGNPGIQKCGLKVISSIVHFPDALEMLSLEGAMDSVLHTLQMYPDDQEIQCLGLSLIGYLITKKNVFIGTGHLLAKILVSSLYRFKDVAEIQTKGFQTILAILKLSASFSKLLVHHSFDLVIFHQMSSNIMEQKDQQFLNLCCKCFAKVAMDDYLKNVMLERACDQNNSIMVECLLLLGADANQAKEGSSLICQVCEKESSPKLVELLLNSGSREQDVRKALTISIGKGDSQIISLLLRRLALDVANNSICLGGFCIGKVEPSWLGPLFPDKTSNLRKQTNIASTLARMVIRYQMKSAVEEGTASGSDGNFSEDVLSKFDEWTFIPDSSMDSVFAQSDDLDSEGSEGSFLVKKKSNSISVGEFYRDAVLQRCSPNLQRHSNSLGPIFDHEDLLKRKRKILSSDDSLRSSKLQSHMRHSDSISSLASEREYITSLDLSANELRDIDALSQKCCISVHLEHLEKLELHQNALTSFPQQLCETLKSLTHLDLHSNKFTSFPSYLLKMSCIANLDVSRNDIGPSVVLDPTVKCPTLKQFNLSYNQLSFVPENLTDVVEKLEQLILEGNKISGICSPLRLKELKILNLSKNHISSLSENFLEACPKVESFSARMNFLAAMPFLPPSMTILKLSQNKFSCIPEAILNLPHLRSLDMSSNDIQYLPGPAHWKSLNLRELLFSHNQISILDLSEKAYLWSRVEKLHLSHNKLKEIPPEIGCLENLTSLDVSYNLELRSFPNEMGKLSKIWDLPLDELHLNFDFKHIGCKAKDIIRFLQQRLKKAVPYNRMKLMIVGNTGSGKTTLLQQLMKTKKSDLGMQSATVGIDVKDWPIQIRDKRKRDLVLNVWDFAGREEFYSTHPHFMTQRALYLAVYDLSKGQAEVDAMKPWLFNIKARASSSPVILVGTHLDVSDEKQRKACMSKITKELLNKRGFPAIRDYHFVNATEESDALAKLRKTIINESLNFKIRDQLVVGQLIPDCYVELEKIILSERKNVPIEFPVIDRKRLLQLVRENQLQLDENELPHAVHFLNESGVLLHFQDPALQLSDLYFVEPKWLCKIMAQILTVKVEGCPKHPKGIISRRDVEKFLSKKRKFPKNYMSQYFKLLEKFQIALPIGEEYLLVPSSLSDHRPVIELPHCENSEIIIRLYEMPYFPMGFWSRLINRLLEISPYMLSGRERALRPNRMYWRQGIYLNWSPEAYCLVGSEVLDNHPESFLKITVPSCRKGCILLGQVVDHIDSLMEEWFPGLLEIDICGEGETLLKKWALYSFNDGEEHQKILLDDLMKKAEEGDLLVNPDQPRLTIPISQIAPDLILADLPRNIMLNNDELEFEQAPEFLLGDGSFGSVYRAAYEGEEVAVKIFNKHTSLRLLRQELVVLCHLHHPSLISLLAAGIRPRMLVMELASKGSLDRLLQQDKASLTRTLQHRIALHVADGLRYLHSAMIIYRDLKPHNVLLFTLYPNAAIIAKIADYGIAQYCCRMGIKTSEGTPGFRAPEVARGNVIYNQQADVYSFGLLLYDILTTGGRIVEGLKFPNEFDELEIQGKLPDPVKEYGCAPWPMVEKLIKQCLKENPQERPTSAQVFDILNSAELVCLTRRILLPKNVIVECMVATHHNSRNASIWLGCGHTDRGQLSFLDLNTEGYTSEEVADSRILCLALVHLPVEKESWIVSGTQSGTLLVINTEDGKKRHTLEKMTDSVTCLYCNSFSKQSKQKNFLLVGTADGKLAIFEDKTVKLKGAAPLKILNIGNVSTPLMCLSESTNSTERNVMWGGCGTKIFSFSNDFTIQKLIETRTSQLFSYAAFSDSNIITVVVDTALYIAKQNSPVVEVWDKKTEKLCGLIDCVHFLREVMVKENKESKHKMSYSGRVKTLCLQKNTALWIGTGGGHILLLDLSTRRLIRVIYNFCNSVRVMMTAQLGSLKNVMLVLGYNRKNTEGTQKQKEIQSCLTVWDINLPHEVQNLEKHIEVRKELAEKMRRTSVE

Row | Compound | IC50
1 | C[C@@H]1COCC[C@H]1n1c(C#N)cc2cnc(Nc3cn(C)nc3OC3COC3)nc21 (single isomer, unassigned) [Example 84, 2-((1-methyl-3-(oxetan-3-yloxy)-1 H-pyrazol-4-yl)amino)-7-((trans)-3-methyltetrahydro-2H-pyran-4-yl)-7H-pyrrolo[2,3-d]pyrimidine-6-carbonitrile] | 0.007 µM
2 | CC1COCCC1n1c(C#N)cc2cnc(Nc3cn(C)nc3OC3COC3)nc21 (single isomer, unassigned) [Example 85, ((1-methyl-3-(oxetan-3-yloxy)-1 H-pyrazol-4-yl)amino)-7-((cis)-3-methyltetrahydro-2H-pyran-4-yl)-7H-pyrrolo[2,3-d]pyrimidine-6-carbonitrile] | 0.041 µM
3 | CC1COCCC1n1c(C#N)cc2cnc(Nc3cn(C)nc3OC3COC3)nc21 (single isomer, unassigned) [Example 86, ((1-methyl-3-(oxetan-3-yloxy)-1 H-pyrazol-4-yl)amino)-7-((cis)-3-methyltetrahydro-2H-pyran-4-yl)-7H-pyrrolo[2,3-d]pyrimidine-6-carbonitrile] | 0.435 µM
4 | CO[C@H]1COC[C@H]1n1c(C#N)cc2cnc(Nc3cn(C(C)C#N)nc3OC3CC3)nc21 (stereo partly drawn) [Example 58, 2-((1-(1-Cyanoethyl)-3-cyclopropoxy-1H-pyrazol-4-yl)amino)-7-((3R,4R)-4-methoxytetrahydrofuran-3-yl)-7H-pyrrolo[2,3-d]pyrimidine-6-carbonitrile] | 0.015 µM
5 | CO[C@H]1COC[C@H]1n1c(C#N)cc2cnc(Nc3cn(C(C)(C)C#N)nc3OC3CC3)nc21 [Example 59, 2-((1-(2-Cyanopropan-2-yl)-3-cyclopropoxy-1H-pyrazol-4-yl)amino)-7-((3R,4R)-4-methoxytetrahydrofuran-3-yl)-7H-pyrrolo[2,3-d]pyrimidine-6-carbonitrile] | 0.031 µM
6 | CO[C@H]1COC[C@H]1n1c(C#N)cc2cnc(Nc3cn(C(C)(C)C#N)nc3OC(C)C)nc21 [Example 60, 2-((1-(2-Cyanopropan-2-yl)-3-isopropoxy-1H-pyrazol-4-yl)amino)-7-((3R,4R)-4-methoxytetrahydrofuran-3-yl)-7H-pyrrolo[2,3-d]pyrimidine-6-carbonitrile] | 0.042 µM
7 | CO[C@H]1COC[C@H]1n1c(C#N)cc2cnc(Nc3cn(C(C)C)nc3OC3CC3)nc21 [Example 61, 2-((3-Cyclopropoxy-1-isopropyl-1H-pyrazol-4-yl)amino)-7-((3R,4R)-4-methoxytetrahydrofuran-3-yl)-7H-pyrrolo[2,3-d]pyrimidine-6-carbonitrile] | 0.133 µM
8 | CO[C@H]1COC[C@H]1n1c(C#N)cc2cnc(Nc3cn(C)nc3OC(C)C)nc21 [Example 62, 2-((3-Isopropoxy-1-methyl-1H-pyrazol-4-yl)amino)-7-((3R,4R)-4-methoxytetrahydrofuran-3-yl)-7H-pyrrolo[2,3-d]pyrimidine-6-carbonitrile] | 0.114 µM
9 | CO[C@H]1COC[C@H]1n1c(C#N)cc2cnc(Nc3cn(C4COC4)nc3OC(C)C)nc21 [Example 63, 2-((3-Isopropoxy-1-(oxetan-3-yl)-1H-pyrazol-4-yl)amino)-7-((3R,4R)-4-methoxytetrahydrofuran-3-yl)-7H-pyrrolo[2,3-d]pyrimidine-6-carbonitrile] | 0.201 µM
10 | CO[C@H]1COC[C@H]1n1c(C#N)cc2cnc(Nc3cn(C4COC4)nc3OC3CC3)nc21 [Example 64, 2-((3-Cyclopropoxy-1-(oxetan-3-yl)-1H-pyrazol-4-yl)amino)-7-((3R,4R)-4-methoxytetrahydrofuran-3-yl)-7H-pyrrolo[2,3-d]pyrimidine-6-carbonitrile] | 0.135 µM
11 | CO[C@H]1COC[C@H]1n1c(C#N)cc2cnc(Nc3cn(C)nc3OC3CC(F)(F)C3)nc21 [Example 65, 2-((3-(3,3-Difluorocyclobutoxy)-1-methyl-1H-pyrazol-4-yl)amino)-7-((3R,4R)-4-methoxytetrahydrofuran-3-yl)-7H-pyrrolo[2,3-d]pyrimidine-6-carbonitrile] | 0.187 µM
